The record followed here is ChEMBL document CHEMBL5291721, “A preclinical secondary pharmacology resource illuminates target-adverse drug reaction associations of marketed drugs” (Nat Commun, 2023).

Broadly, the AC50 is the concentration at which the activity in the assay is half-maximal. Read a low AC50 as activity at low concentration.

Assay [1] has as its target Beta-2 adrenergic receptor (Homo sapiens, UniProt P07550). Type of assay: functional, cell-based.
The target in assay [2] is T1, 5-hydroxytryptamine receptor 3A (Homo sapiens, UniProt P46098).
T1 sequence (P46098 whole entry): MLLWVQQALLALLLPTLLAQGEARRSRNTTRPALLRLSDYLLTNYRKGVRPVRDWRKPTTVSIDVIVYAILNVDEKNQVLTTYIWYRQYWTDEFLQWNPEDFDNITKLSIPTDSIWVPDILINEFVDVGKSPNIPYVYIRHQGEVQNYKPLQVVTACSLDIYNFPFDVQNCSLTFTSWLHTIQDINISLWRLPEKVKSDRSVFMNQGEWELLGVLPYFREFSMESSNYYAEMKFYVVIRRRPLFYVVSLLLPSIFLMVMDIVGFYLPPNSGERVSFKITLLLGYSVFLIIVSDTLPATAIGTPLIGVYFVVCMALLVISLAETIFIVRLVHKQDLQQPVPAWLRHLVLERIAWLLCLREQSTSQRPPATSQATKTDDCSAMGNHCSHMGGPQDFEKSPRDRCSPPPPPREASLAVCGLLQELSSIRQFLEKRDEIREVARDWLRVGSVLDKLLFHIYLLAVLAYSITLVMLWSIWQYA
It is filed as functional.

Assay [3] concerns the target 3',5'-cyclic-AMP phosphodiesterase 4D (Homo sapiens, UniProt Q08499). Type of assay: functional.
Assay [4] addresses T2, Type-1 angiotensin II receptor (Homo sapiens, UniProt P30556).
T2 sequence (P30556 whole entry): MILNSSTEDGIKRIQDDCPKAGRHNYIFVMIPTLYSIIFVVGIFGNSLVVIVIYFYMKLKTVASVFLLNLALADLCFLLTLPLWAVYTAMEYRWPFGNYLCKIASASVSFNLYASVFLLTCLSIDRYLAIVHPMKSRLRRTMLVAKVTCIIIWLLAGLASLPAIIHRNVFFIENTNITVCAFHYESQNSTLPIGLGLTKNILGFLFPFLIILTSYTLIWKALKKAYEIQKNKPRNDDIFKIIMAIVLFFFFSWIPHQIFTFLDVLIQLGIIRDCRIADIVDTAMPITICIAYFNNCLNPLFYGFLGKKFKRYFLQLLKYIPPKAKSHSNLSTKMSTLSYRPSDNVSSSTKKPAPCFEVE

A further assay concerns the target Cannabinoid receptor 1 (Homo sapiens, UniProt P21554). It is filed as functional, cell-based.
The target of a further assay is Histamine H3 receptor (Homo sapiens, UniProt Q9Y5N1).
Histamine H3 receptor, sequence (Q9Y5N1 whole entry): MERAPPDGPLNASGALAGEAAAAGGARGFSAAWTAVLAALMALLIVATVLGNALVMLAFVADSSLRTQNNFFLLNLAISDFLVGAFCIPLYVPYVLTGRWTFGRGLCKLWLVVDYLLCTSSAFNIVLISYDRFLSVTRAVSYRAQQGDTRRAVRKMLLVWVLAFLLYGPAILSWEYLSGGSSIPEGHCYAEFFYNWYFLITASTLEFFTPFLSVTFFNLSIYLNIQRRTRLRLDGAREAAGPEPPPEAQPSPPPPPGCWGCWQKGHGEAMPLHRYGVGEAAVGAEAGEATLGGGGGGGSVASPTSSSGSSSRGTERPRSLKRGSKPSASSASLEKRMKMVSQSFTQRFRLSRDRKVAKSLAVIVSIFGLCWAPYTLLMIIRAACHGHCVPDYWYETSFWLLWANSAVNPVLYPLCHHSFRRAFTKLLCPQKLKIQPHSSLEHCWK
Assay [5] deals with T3, Alpha-1A adrenergic receptor (Homo sapiens, UniProt P35348).
T3 sequence (P35348 whole entry): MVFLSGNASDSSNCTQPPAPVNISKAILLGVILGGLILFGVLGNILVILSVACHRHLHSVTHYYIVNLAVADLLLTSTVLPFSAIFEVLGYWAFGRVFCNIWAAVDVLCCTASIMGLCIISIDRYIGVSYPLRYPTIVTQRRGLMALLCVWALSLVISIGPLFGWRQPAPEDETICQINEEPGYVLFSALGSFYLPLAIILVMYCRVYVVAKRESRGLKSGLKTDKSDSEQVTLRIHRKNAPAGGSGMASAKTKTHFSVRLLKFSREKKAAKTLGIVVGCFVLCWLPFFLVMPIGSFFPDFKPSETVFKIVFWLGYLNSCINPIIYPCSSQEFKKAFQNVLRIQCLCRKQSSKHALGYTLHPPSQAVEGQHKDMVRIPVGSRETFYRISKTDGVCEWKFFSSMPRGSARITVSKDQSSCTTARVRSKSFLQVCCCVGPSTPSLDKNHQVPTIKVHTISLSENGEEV
It is filed as functional, cell-based.

Another assay has as its target Vasopressin V1a receptor (Homo sapiens, UniProt P37288).
In assay [6] the target is T3, Alpha-1A adrenergic receptor. It is filed as functional, cell-based. This is another data set of the same source.
The target in another assay is T4, Endothelin-1 receptor (Homo sapiens, UniProt P25101).
T4 sequence (P25101 whole entry): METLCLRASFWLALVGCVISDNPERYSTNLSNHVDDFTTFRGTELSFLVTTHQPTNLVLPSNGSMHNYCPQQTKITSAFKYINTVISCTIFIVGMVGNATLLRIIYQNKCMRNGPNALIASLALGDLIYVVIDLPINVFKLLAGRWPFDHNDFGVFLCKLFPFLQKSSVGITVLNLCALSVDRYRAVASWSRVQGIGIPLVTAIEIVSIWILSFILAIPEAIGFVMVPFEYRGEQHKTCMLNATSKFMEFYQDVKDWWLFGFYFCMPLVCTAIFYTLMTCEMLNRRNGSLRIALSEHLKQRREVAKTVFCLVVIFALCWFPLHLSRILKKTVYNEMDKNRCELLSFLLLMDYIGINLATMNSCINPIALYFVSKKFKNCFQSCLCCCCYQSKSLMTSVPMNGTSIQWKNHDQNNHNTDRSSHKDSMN

Assay [7] addresses T3, Alpha-1A adrenergic receptor. It is filed as functional, cell-based. The source holds these as a separate data set.
Assay [8] deals with Neuronal acetylcholine receptor subunit alpha-4 (Homo sapiens, UniProt P43681).
Neuronal acetylcholine receptor subunit alpha-4, sequence (P43681 whole entry): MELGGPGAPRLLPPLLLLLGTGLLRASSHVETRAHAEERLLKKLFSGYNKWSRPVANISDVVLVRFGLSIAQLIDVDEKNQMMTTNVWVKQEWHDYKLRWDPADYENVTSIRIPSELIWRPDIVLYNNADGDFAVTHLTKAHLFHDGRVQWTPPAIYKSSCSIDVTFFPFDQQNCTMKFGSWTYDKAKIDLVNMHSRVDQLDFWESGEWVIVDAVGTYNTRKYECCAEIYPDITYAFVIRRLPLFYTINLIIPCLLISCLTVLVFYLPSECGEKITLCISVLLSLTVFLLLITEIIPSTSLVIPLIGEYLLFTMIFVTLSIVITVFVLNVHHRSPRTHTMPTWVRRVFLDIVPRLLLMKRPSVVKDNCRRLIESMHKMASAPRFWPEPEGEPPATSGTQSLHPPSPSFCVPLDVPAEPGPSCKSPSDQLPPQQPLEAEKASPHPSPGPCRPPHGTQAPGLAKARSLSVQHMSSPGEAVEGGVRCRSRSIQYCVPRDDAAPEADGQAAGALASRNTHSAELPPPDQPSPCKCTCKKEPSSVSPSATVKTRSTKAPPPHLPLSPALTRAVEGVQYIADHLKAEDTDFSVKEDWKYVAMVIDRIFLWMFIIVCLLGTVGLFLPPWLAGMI
In assay [9] the target is T5, Muscarinic acetylcholine receptor M2 (Homo sapiens, UniProt P08172).
T5 sequence (P08172 whole entry): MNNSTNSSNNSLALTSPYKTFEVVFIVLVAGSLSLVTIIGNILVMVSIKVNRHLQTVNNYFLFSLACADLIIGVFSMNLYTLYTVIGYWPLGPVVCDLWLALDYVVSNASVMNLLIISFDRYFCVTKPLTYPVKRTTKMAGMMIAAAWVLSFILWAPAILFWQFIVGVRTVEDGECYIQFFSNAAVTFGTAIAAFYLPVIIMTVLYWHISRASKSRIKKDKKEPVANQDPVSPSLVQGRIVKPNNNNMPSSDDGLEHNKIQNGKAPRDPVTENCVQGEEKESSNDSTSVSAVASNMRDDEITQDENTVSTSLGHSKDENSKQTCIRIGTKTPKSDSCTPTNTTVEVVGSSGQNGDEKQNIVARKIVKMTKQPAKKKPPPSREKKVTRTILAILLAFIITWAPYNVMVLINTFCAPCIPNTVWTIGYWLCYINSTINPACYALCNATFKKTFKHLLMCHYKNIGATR
Type of assay: functional, cell-based.

Assay [10] has as its target Gamma-aminobutyric acid receptor subunit alpha-1 (Rattus norvegicus, UniProt P62813). It is filed as functional.
Also: assay procedure not described here.

3',5'-cyclic-AMP phosphodiesterase 4D, sequence (Q08499 whole entry): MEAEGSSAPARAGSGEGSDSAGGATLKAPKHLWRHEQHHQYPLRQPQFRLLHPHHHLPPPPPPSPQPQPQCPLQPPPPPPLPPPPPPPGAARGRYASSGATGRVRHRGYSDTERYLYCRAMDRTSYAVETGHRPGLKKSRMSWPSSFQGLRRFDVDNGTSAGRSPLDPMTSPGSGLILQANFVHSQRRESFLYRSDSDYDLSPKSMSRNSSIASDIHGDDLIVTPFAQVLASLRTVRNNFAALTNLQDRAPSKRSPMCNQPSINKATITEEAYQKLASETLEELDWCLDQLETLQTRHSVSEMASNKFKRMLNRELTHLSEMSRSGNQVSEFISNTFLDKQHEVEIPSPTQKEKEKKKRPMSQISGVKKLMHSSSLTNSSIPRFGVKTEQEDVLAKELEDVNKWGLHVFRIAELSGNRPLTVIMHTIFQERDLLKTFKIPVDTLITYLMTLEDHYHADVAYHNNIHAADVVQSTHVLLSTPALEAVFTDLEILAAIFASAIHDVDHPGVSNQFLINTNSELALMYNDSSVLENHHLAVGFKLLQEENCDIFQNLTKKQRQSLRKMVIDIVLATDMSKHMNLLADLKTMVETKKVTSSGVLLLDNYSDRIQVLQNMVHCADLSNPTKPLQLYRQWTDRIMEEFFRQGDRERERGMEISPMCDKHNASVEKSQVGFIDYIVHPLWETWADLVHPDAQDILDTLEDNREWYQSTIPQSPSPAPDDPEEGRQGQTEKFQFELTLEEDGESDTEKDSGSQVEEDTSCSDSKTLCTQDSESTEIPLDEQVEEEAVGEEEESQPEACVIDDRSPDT
Cannabinoid receptor 1, sequence (P21554 whole entry): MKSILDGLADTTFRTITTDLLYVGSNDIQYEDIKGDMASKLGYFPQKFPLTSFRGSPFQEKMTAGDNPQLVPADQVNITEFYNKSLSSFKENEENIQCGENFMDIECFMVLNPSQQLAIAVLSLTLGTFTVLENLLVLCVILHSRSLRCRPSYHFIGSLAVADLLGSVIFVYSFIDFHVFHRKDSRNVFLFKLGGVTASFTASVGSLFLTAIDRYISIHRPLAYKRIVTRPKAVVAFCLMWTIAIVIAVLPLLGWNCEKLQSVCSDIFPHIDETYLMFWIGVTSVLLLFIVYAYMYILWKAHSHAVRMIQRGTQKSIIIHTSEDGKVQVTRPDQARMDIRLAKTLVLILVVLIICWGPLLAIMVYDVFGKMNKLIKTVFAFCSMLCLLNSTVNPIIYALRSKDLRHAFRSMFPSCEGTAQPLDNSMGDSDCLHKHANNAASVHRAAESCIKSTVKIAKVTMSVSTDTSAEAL
Beta-2 adrenergic receptor, sequence (P07550 whole entry): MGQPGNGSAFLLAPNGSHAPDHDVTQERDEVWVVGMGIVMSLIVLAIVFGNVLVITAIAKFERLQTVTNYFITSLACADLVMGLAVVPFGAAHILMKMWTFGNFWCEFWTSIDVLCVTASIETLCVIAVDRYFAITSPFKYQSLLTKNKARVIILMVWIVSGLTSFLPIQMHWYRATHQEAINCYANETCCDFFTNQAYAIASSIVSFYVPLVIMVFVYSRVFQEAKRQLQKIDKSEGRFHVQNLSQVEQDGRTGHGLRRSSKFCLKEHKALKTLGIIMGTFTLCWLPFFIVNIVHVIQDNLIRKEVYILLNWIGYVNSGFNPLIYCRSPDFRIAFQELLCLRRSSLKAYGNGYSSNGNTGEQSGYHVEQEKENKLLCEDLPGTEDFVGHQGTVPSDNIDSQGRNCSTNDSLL
Vasopressin V1a receptor, sequence (P37288 whole entry): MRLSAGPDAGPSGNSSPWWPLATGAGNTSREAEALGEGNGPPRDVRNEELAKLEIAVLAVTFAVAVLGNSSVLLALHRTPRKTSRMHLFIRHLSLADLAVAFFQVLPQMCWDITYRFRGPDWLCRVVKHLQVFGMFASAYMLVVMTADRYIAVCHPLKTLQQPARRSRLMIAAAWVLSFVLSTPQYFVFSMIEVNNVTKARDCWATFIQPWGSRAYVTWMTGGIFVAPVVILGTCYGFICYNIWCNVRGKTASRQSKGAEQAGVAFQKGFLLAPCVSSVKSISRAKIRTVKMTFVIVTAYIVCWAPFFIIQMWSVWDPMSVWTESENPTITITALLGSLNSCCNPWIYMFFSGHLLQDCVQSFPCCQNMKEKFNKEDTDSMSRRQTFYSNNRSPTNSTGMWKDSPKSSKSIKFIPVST
Gamma-aminobutyric acid receptor subunit alpha-1, sequence (P62813 whole entry): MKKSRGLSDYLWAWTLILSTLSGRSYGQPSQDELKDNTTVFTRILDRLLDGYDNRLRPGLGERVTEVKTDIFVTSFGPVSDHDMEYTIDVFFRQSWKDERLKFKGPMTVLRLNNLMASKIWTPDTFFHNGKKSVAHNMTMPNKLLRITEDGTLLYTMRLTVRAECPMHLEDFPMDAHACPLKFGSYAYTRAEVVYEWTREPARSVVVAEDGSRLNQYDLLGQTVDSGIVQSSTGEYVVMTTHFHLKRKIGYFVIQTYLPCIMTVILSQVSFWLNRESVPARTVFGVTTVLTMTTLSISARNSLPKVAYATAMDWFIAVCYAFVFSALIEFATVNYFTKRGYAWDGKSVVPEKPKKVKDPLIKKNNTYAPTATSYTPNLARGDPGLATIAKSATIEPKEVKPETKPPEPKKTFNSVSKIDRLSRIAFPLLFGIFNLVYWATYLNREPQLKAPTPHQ

As to `COc1cc2nccc(Oc3ccc(NC(=O)C4(C(=O)Nc5ccc(F)cc5)CC4)cc3)c2cc1OC` [CABOZANTINIB], the AC50 in [1] was greater than 30 µM; in assay [2] it was greater than 30 µM; in assay [3], 10 µM; in assay [4] it was greater than 30 µM; on Cannabinoid receptor 1, greater than 30 µM; on Histamine H3 receptor, greater than 30 µM. Moreover, the AC50 (in [5]; at Vasopressin V1a receptor; in assay [6]; at Endothelin-1 receptor; in assay [7]; in assay [8]) was greater than 30 µM throughout. Further, the AC50 in [9] and in [10] was greater than 30 µM each time.

Regarding `CC(C)Cc1ccc(C(C)C(=O)O)cc1` (stereo unspecified) [IBUPROFEN], the AC50 in [1] is greater than 30 µM; in assay [2], greater than 30 µM; in [3] it was greater than 30 µM; in [4], greater than 30 µM; on Cannabinoid receptor 1, greater than 30 µM; on Histamine H3 receptor it was greater than 10 µM. The AC50 in [5] was greater than 30 µM; on Vasopressin V1a receptor it was greater than 30 µM; in assay [6], greater than 30 µM; at Endothelin-1 receptor it was greater than 30 µM; in assay [7] it was greater than 30 µM; in [8], greater than 10 µM. Moreover, the AC50 in assay [9] and in assay [10] was greater than 10 µM in each case.

For the compound `CC(=O)O[C@]1(C(C)=O)CC[C@H]2[C@@H]3C=C(C)C4=CC(=O)CC[C@@H]4[C@H]3CC[C@@]21C` [NOMEGESTROL ACETATE], the AC50 in assay [1] was greater than 30 µM; in assay [2], greater than 30 µM; in [3], 14 µM; on Cannabinoid receptor 1, greater than 30 µM; in assay [5] it was greater than 30 µM; in [6], greater than 30 µM. In addition, the AC50 was greater than 30 µM in assay [7], greater than 30 µM in [8], greater than 30 µM in [9] and 2.5 µM in [10].

Regarding `C=CC[C@@H]1/C=C(\C)C[C@H](C)C[C@H](OC)[C@H]2O[C@@](O)(C(=O)C(=O)N3CCCC[C@H]3C(=O)O[C@H](/C(C)=C/[C@@H]3CC[C@@H](O)[C@H](OC)C3)[C@H](C)[C@@H](O)CC1=O)[C@H](C)C[C@@H]2OC` [TACROLIMUS ANHYDROUS], the AC50 (in [1]; in assay [2]; in [3]; in assay [4]; on Cannabinoid receptor 1; on Histamine H3 receptor) was greater than 30 µM throughout. Besides, the AC50 in assay [5] was greater than 30 µM; at Vasopressin V1a receptor it was greater than 30 µM; in assay [6] it was greater than 30 µM; on Endothelin-1 receptor it was greater than 30 µM; in [8], greater than 30 µM; in assay [9], greater than 10 µM. Moreover, in [10], the AC50 is greater than 30 µM.

As for `CC(S)C(=O)NCC(=O)O` (stereo unspecified) [TIOPRONIN], the AC50 (in assay [1]; in [2]; in assay [3]; in assay [4]; on Cannabinoid receptor 1; at Histamine H3 receptor) was greater than 30 µM each time. Further, the AC50 (in assay [5]; at Vasopressin V1a receptor; in [6]; at Endothelin-1 receptor; in assay [8]; in [9]) was greater than 30 µM throughout. The compound also had an AC50 in assay [10] greater than 30 µM.

`C[C@H](CCC(=O)O)[C@H]1CC[C@H]2[C@@H]3[C@@H](O)C[C@@H]4C[C@H](O)CC[C@]4(C)[C@H]3CC[C@]12C` [URSODIOL]: the AC50 (in [1]; in assay [2]; in [3]; in assay [4]; at Cannabinoid receptor 1; on Histamine H3 receptor) was greater than 30 µM in each case. Besides, the AC50 (in assay [5]; on Vasopressin V1a receptor; in [6]; on Endothelin-1 receptor; in assay [8]; in [9]) was greater than 30 µM each time. The AC50 in assay [10] was greater than 30 µM.

As to `Cc1onc(-c2ccccc2)c1-c1ccc(S(N)(=O)=O)cc1` [VALDECOXIB], the AC50 in [1] is greater than 30 µM; in assay [2], greater than 30 µM; in [3], greater than 10 µM; in [4], greater than 30 µM; at Cannabinoid receptor 1, greater than 30 µM; on Histamine H3 receptor, greater than 30 µM. In addition, the AC50 (in assay [5]; at Vasopressin V1a receptor; in assay [6]; at Endothelin-1 receptor; in assay [7]; in assay [8]) was greater than 30 µM in each case. In addition, the AC50 in assay [9] and in [10] was greater than 10 µM each time.
